From publication PMC5120310, “In Silico Exploration for Novel Type-I Inhibitors of Tie-2/TEK: The Performance of Different Selection Strategy in Selecting Virtual Screening Candidates” (Scientific Reports, 2016)
Read-outs that look alike come from different tables or passages of the source.

Molecular target: T1, recombinant human Tie-2 protein (Homo sapiens, UniProt Q02763)
T1 construct: purchased Thermo Fisher Scientific Inc. PV3628
Experiment: Z′-Lyte FRET enzymatic activity assay of Tie-2 kinase
Assay type: biochemical
Details: for Inhibition (%) @10 μg/ml / inhibition at 10 µg/mL: 10 μg/mL preliminary screening, Table S1; for Tie-2 inhibitory activity in words (active / inactive): VS candidates of Strategy 1, preliminary screening at 10 μg/mL

[1] = Z′-Lyte assay, 100 μM ATP, n ≥ 2 per concentration, read-out: IC50 (half-maximal inhibitory concentration), Tie-2 kinase
[2] = in the dose-response figure, read-out: IC50 (dose-dependent inhibitory effect), Tie-2 kinase (converted)

T1 sequence (Q02763 23-1124): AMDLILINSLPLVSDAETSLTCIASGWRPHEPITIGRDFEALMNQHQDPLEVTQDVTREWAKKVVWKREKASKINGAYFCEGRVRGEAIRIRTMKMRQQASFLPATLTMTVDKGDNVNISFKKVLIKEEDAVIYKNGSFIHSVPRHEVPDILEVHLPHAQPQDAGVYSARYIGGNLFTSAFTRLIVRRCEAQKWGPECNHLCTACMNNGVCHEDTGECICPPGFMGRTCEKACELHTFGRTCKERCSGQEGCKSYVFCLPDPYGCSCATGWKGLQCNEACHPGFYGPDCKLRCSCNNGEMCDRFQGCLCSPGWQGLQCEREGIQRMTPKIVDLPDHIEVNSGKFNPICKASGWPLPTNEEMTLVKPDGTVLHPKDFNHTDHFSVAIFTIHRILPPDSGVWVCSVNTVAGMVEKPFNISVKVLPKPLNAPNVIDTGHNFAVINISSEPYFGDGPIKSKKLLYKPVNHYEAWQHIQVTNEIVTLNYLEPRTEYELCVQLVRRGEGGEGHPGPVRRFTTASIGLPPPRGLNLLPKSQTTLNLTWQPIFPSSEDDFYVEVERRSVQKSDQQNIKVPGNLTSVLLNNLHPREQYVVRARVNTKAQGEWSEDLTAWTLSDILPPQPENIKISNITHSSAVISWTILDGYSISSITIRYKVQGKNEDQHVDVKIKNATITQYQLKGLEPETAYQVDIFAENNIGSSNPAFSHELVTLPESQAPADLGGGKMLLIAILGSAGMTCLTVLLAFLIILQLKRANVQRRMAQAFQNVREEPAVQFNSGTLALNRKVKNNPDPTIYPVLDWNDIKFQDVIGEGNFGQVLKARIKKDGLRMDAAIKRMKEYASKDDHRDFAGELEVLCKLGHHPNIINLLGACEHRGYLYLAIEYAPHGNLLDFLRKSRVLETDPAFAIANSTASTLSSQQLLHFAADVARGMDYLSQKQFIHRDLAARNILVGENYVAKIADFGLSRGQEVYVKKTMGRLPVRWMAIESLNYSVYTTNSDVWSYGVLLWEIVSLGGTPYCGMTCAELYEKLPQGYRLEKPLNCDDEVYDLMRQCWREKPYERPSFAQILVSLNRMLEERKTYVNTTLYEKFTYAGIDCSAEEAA
Procedure: In order to assess the biological inhibitory activity of the VS compounds, Z’-Lyte enzymatic activity assay based on FRET (Fluorescence Resonance Energy Transfer) technology was developed as described above. […] At first, all the compounds obtained from both filtering strategies were preliminary screened for their ability to inhibit Tie-2 kinase activity at the concentration of 10 μg/mL.
The Tie-2 kinase inhibitor (CAS#: 948557-43-5, purity ≥ 97%) was purchased from Merck Calbiochem (Darmstadt, Germany) and used as a positive control inhibitor in bioassays[40]. […] All the purchased screening compounds were firstly dissolved in dimethyl sulfoxide (DMSO) at a stock concentration of 5 mg/ml. The final working concentration of DMSO is less than 1%.
Compounds were tested for their ability to inhibit Tie-2 kinase activity using Z′-Lyte® kinase assay kit (ser/thr 5 peptide) with NUNC 384-well plate. In the first step, the test compounds and ATP solution were firstly prepared at 4 × desired concentration. The mixture of recombinant human Tie-2 protein and non-phosphorylated peptide at 2 × desired concentration was prepared in kinase reaction buffer A consisting of 50 mM HEPES (pH 7.5), 0.01% BRIJ-35, 10 mM MgCl2, 4 mM MnCl2, 1 mM EGTA and 2 mM DTT. Reactions were then carried out in a solution containing 2.5 μL test compounds, 5 μL Tie-2/Tyr 05 peptide mixture (10 ng Tie-2 and 2 μM Tyr 05 peptide) and 2.5 μL ATP (100 μM). Then, the assay plate was shaken for 30 seconds on a plate shaker, and incubated for 1 hour at room temperature (20~25 °C). After sufficient kinase reactions, 5 μL development reagent A was added to each well, and the plate was incubated for another hour. Finally, 5 μL stop reagent was added to terminate the reactions, and the coumarin and fluorescein emission signals (excitation: 400 nm; emission: 445 and 520 nm, respectively) were measured on a fluorescence plate reader (BioTek Synergy 4).

SMILES	Inhibition (%) @10 μg/ml [%]	further results
O=C(NN=Cc1ccc(N2N=C(c3ccccc3)CC2c2ccccc2)cc1)c1ccncc1 (racemic) [TP-C1-6]	16.08±16.2	Tie-2 inhibitory activity in words (active / inactive): inactive
CCOc1ccc(NC(=O)C(C)Sc2nc3ccccc3c(=O)n2-c2cccc(C)c2)cc1 (racemic) [TP-C1-36]	3.87±1.8	
Fc1ccc(C2CC(c3cccs3)=NN2C(=S)NCCc2ccccc2)cc1 (racemic) [TP-C1-39]	56.09±2.14	
c1cncc(CN2CN(CC3CCCO3)c3nc4ccccc4n3C2)c1 (racemic) [TP-C1-56]	29.83±0.28	
CCN1C(=O)NC(c2ccc(Cl)cc2)C(C(=O)OCCc2ccccc2)=C1C (racemic) [TP-C2-3]	56.11±13.15	
COc1ccc(C2C(C(=O)c3cccs3)=C(O)C(=O)N2CCN(C)C)cc1OC (racemic) [TP-C2-17]	66.32±3.22	
O=C(O)CC1SC(=NN=Cc2ccc(OC(=O)c3cccc4ccccc34)cc2)NC1=O (racemic) [TP-C2-19]	-280.42±23.11	
COc1cc2c(cc1OC)C(c1ccc(OCc3ccccc3)cc1)CC(=O)N2 (racemic) [TP-C2-27]	55.28±4.04	
CC1=C(C(=O)Nc2ccc(C)cc2C)C(c2ccc(OCc3ccccc3)cc2)NC(=S)N1 (racemic) [TP-C2-40]	95.39±0.98	IC50 [1]: 4.69 ± 0.37 µM
N#Cc1cc2c([nH]c1=O)CC(c1ccccc1)CC2=NNc1ccccc1 (stereo not drawn) [TP-C1-2]	56.84±0.18	
CCOC(=O)c1ccc(NC(=O)CN2C(=O)c3ccccc3C2=O)cc1 [TP-C1-3]	37.64±1.82	
COc1cc(-c2nc3ccccn3c2N=Cc2c[nH]nc2-c2ccccc2)ccc1O [TP-C1-5]	25.58±3.23	
O=C(NCCNC(=O)c1cc2ccccc2cc1O)c1cc2ccccc2cc1O [TP-C1-7]	9.84±11.04	
CCOc1ccc(CN(CCc2ccc3c(c2)OCO3)Cc2ccc(C)cc2)cc1 [TP-C1-9]	17.49±0.65	
Cc1cccc(-n2c(CCN3C(=O)c4ccccc4C3=O)nc3ccccc3c2=O)c1 [TP-C1-10]	44.25±1.05	
COc1cc(C=NN=C2SC(CC(=O)O)C(=O)N2c2ccc(O)cc2)ccc1O (stereo not drawn) [TP-C1-11]	37.56±1.85	
Cc1cccc(C(=O)Nc2ccc(-c3cc4ccccc4oc3=O)cc2)c1 [TP-C1-12]	3.6±13.1	
Cc1ccc(-c2cc(C(=O)OCC(=O)c3ccccc3)c3cccc(C)c3n2)cc1 [TP-C1-13]	28.98±1.34	Tie-2 inhibitory activity in words (active / inactive): inactive
CCOc1cc(-c2nc3sc4c(c3c(=O)[nH]2)CCCC4)ccc1OCc1ccccc1F [TP-C1-14]	10.67±4.7	
CCc1ccc2oc(-c3ccc(NC(=S)NC(=O)c4cc5ccccc5o4)cc3)nc2c1 [TP-C1-15]	-0.66±5.93	
CCOC(=O)CNS(=O)(=O)c1cc(-c2nnc(Nc3cccc(C)c3)c3ccccc23)ccc1C [TP-C1-16]	9.52±4.54	

SMILES	Inhibition (%) @10 μg/ml [%]	further results
CCOc1ccc2c(c1)-c1c(ssc1=S)C(C)(C)N2C(=O)CSc1nc(C)cc(O)n1 [TP-C1-17]		inhibition at 10 µg/mL: 89.5 ± 2.93%; IC50 [1]: 4.45 ± 0.36 µM; IC50 [2]: 4.45 µM
O=c1cc(-c2ccccc2)c2ccc(OCc3cccc(C(F)(F)F)c3)cc2o1 [TP-C1-18]	39.7±2.94	Tie-2 inhibitory activity in words (active / inactive): inactive
CC1=C(C(=O)Nc2ccc(C)cc2C)C(c2ccc(O)cc2)NC(=S)N1 (stereo not drawn) [TP-C1-21]	58.96±3.25	
COc1cc(C(=O)n2c(SCc3ccc(F)cc3)nc3ccccc32)cc(OC)c1OC [TP-C1-22]	-46.75±1.97	
COc1cccc(C2C(C(=O)c3ccc(C)o3)=C(O)C(=O)N2CCN(C)C)c1 (stereo not drawn) [TP-C1-25]	3.13±1.45	
COCCCN1C(=O)C(O)=C(C(=O)c2ccc(Cl)cc2)C1c1ccc(O)cc1 (stereo not drawn) [TP-C1-26]	7.19±0.3	
O=C(CN(Cc1ccc(F)cc1)S(=O)(=O)c1ccc(Cl)cc1)NCc1ccccn1 [TP-C1-27]	4.93±5.56	
O=C(CSc1nnc(-c2cccnc2)n1-c1ccccc1)c1ccc(F)cc1 [TP-C1-28]	71.3±0.7	IC50 [1]: 43.6 ± 2.32 µM
O=C(NCCc1cccc2ccccc12)C1CCCN1S(=O)(=O)c1ccc2ccccc2c1 (stereo not drawn) [TP-C1-29]	39.83±5.94	
O=C(CC1c2ccccc2Oc2ccccc21)Nc1ccccn1 [TP-C1-30]	11.44±0.49	
CCCCc1ccc(NC(=S)C2=C(NCc3ccc4c(c3)OCO4)CC(C)(C)CC2=O)cc1 [TP-C1-31]	2.9±8.41	Tie-2 inhibitory activity in words (active / inactive): inactive
COc1ccc(CNC(=O)CSc2nc3ccc(NC(=O)c4ccccc4C)cc3s2)cc1 [TP-C1-32]	47.23±0.53	
CC(=O)Oc1ccccc1NC(=O)c1ccc2c(c1)C(=O)N(CC1CCCO1)C2=O (stereo not drawn) [TP-C1-34]	6.95±6.26	
COc1ccc(-c2cc(-c3ccccc3)c(C#N)c(S(=O)(=O)Cc3ccccc3)n2)cc1 [TP-C1-35]	69.07±3.54	
O=C(OCc1ccccc1)c1cn(-c2ccccc2)nc1-c1ccncc1 [TP-C1-37]	25.51±1.18	IC50 [1]: 36.1 ± 1.33 µM
O=C(CN(c1ccc2c(c1)OCCO2)S(=O)(=O)c1ccccc1)Nc1cccnc1 [TP-C1-38]	12.5±2.86	
O=c1[nH]c(-c2ccc(OCc3ccccc3F)cc2)nc2ccccc12 [TP-C1-40]	2.81±1.73	
Cc1c(C)n(Cc2ccccc2)c2ccc(C(=O)NNC(=S)NCC3CCCO3)cc12 (stereo not drawn) [TP-C1-41]	32.86±3.03	
Cc1cc(C(=O)c2ccccc2)ccc1OC(=O)CN1C(=O)c2ccccc2C1=O [TP-C1-42]	-27.08±4.67	
Cc1ccccc1-c1nc(S(=O)(=O)c2ccc(Cl)cc2)c(NCc2cccnc2)o1 [TP-C1-43]	-0.28±1.12	
O=C(c1cc(-c2ccncc2)nc2ccc(Br)cc12)N1CCN(Cc2ccc3c(c2)OCO3)CC1 [TP-C1-45]	63.88±1.45	

SMILES	Inhibition (%) @10 μg/ml [%]	further results
CC(=O)Nc1c(O)nc(SCC(=O)Nc2ccc(C(C)=O)cc2)[nH]c1=O [TP-C1-47]		inhibition at 10 µg/mL: 81.9 ± 1.73%; IC50 [1]: 5.15 ± 0.4 µM; IC50 [2]: 5.15 µM
COc1cccc(OC)c1C(=O)NC(=S)Nc1ccc(NC(=O)c2ccco2)c(Cl)c1 [TP-C1-49]	49.58±1.56	
c1ccc(-c2nnc3n2N=C(c2c[nH]c4ccccc24)CS3)cc1 [TP-C1-50]	61.04±3.33	
COc1ccccc1C(=O)Nc1ccc(Oc2ccc3c(c2)C(=O)NC3=O)cc1 [TP-C1-51]	54.56±1.99	
O=C1c2ccccc2C(=O)N1CCc1nn2c(-c3cccnc3)nnc2s1 [TP-C1-52]		inhibition at 10 µg/mL: 101 ± 2.04%; IC50 [1]: 15.3 ± 0.68 µM; fold decreased activity compared to TP-C1-17 and TP-C1-47 (from IC50 values): ~ 3 fold; IC50 [2]: 15.3 µM
c1ccc(-c2nnc(CSc3nnc(-c4ccncc4)[nH]3)o2)cc1 [TP-C1-53]	28.39±0.73	
Cl.O=C(O)c1ccc(Cl)c(-c2ccc(CNCC(O)c3ccccc3)o2)c1 (stereo not drawn) [TP-C1-55]	20.01±0.68	
O=c1[nH]nc(CCc2n[nH]c(=O)c3ccccc23)c2ccccc12 [TP-C2-1]	48.48±7.49	
Cn1c(=O)[nH]c(=O)c2c1nc(NCCCO)n2CC(O)COc1ccccc1 (stereo not drawn) [TP-C2-2]	51.41±2.9	
CCOc1cc(C2C(C(=O)OCCc3ccccc3)=C(C)NC3=C2C(=O)CCC3)ccc1O (stereo not drawn) [TP-C2-4]	69.77±2.75	
CCCOc1ccc(N2C(=O)CC(N(CCc3ccc(OC)cc3)C(=O)c3cccc(F)c3)C2=O)cc1 (stereo not drawn) [TP-C2-5]	83.65±2.57	IC50 [1]: 13.8 ± 1.02 µM
CCOc1ccc(CN(CCc2ccc3c(c2)OCO3)Cc2ccc(C(F)(F)F)cc2)cc1 [TP-C2-6]	49.69±0.95	
Cc1cc(NC(=S)NC(=O)c2ccccc2C)ccc1NC(=O)c1ccccc1 [TP-C2-7]	54.53±0.58	
COc1ccc(C(=O)NC(=S)Nc2ccc(-c3nc4cc(C)c(C)cc4o3)cc2)cc1OC [TP-C2-8]	68.53±6.25	
COc1ccc(C(=O)NC(=S)Nc2ccc(NC(=O)c3cccc(C)c3)cc2)cc1OC [TP-C2-9]		inhibition at 10 µg/mL: 81.6 ± 2.85%; IC50 [1]: 1.86 ± 0.18 µM; IC50 [2]: 1.87 µM
O=C(NC(=S)Nc1ccc(-c2nc3ccccc3o2)c(O)c1)c1cccc(Br)c1 [TP-C2-10]	46.26±3.21	
COc1cc(NC(=S)NC(=O)c2ccccc2OC)ccc1NC(=O)c1cc2ccccc2o1 [TP-C2-11]	87.61±5.43	IC50 [1]: 15.1 ± 0.92 µM
Cc1ccc2nc(-c3ccc(NC(=S)NC(=O)c4oc5ccccc5c4C)cc3)oc2c1 [TP-C2-12]	85.54±0.14	IC50 [1]: 14.6 ± 1.21 µM
CC1(C)CC(=O)C(C(=S)Nc2ccccc2)=C(NCc2ccc3c(c2)OCO3)C1 [TP-C2-13]	84.95±3.24	IC50 [1]: 6.78 ± 0.36 µM
